Test [1] concerns IL-12 induced STAT4 phophorylation mediated by Tyk2/JAK2 (heterodimeric complex). Nature of the test: IL-12 Induced pSTAT4 in Human PBMC. The test is classed as cell-based. Particulars: 1.7 ng/mL IL-12. From the text:
The IL-12 Induced pSTAT4 assay evaluates the inhibition of IL-12 induced STAT4 phophorylation mediated by Tyk2/JAK2 (heterodimeric complex).

In test [2] the test system is GM-CSF induced STAT5 phosphorylation mediated by the JAK2/JAK2 homdimeric complex. Nature of the test: GM-CSF Induced pSTAT5 in Human PBMC. Conditions: GM-CSF 5 ng/mL for 20 minutes, pSTAT5.
From the text: Human PBMC are isolated from buffy coat and are stored frozen for assays as needed.
Where [3] appears, read: Homo sapiens, PBMC, 20 min, read-out: PBMC_GMCSF_pSTAT5 IC50, human PBMC.
[4] abbreviates: read-out: PBMC_GMCSF_pSTAT5 IC50, human PBMC.

Each structure is given as a SMILES string. Where two headings read alike, the source gives them in different places.

Compound `CNc1cc(Nc2cccn(-c3ccc(F)cc3)c2=O)nc2c(C(N)=O)cnn12` [I-9] gave an IC50 in test [1] of 100 to 500 nM. The same measure, in the same setting: the figure for `CNc1cc(Nc2cccn([C@@H]3CCCOC3)c2=O)nc2c(C(=O)NC3CC3)cnn12` [I-351] is under 100 nM; for `CNc1cc(Nc2cccn([C@H]3CC[C@@](C)(O)CC3)c2=O)nc2c(C(=O)N[C@H]3C[C@H]3F)cnn12` [I-370] it is under 100 nM. In test [1], `CNc1cc(Nc2cccn([C@H]3CC[C@](C)(O)CC3)c2=O)nc2c(C(=O)NC3CC3)cnn12` [I-371] displayed an IC50 of 100 to 500 nM. In test [1], `CNc1cc(Nc2cccn([C@H]3CC[C@](C)(O)CC3)c2=O)nc2c(C(=O)N[C@H]3C[C@H]3F)cnn12` [I-372] came in with an IC50 of under 100 nM. In test [1], `CNc1cc(Nc2cccn(-c3nn(C)cc3C)c2=O)nc2c(C(=O)NC3CC3)cnn12` [I-404] gave an IC50 of over 1000 nM. `CNc1cc(Nc2cccn(-c3nn(C)cc3C)c2=O)nc2c(C(=O)N[C@H]3C[C@H]3F)cnn12` [I-405] displayed an IC50 in test [1] of 100 to 500 nM. In test [1], `[2H]C([2H])([2H])Oc1ncccc1Nc1cc(NC)n2ncc(C(=O)N[C@H]3CC[C@@H]3O)c2n1` [I-411] had an IC50 of under 100 nM. Consider `CNc1cc(Nc2cccn([C@H]3CCC[C@@H](OC)C3)c2=O)nc2c(C(=O)NCC(C)(C)CO)cnn12` [I-861], for which the IC50 in test [1] was under 100 nM. The compound `CNc1cc(Nc2cccn(-c3ncccc3F)c2=O)nc2c(C(=O)O)cnn12` [I-893, 5-((3′-fluoro-2-oxo-2H-[1,2′-bipyridin]-3-yl)amino)-7-(methylamino) pyrazolo[1,5-a]pyrimidine-3-carboxylic acid] returned an IC50 in test [1] of over 1000 nM.

Turning to `CNc1cc(Nc2cccn([C@H]3CCCN(CCF)C3)c2=O)nc2c(C(=O)N[C@@H]3C[C@@H]3F)cnn12` [I-900], the IC50 in test [1] was under 100 nM. Turning to `CNc1cc(Nc2cccn([C@H]3CCC[C@H](OC)C3)c2=O)nc2c(C(=O)N[C@@H]3C[C@@H]3F)cnn12` [I-1042], the IC50 in test [2] (setting [3]) is over 2500 nM. With `CNc1cc(-c2cn(C3CCOCC3)c3ncccc23)nc2c(C(=O)NC3CCC3O)cnn12` (centres unmarked) [I-1048, N-(2-hydroxycyclobutyl)-7-(methylamino)-5-(1-(tetrahydro-2H-pyran-4-yl)-1H-pyrrolo[2,3-b]pyridin-3-yl)pyrazolo[1,5-a]pyrimidine-3-carboxamide], the IC50 in test [2] (setting [3]) is over 2500 nM. As to `CNc1cc(Nc2cccn([C@H]3CCN(CCF)C3)c2=O)nc2c(C(=O)N[C@H]3CC[C@@H]3OC)cnn12` [I-1050, 5-((1-((S)-1-(2-fluoroethyl)pyrrolidin-3-yl)-2-oxo-1,2-dihydropyridin-3-yl)amino)-N-((1 S,2S)-2-methoxycyclobutyl)-7-(methylamino)pyrazolo[1,5-a]pyrimidine-3-carboxamide], the IC50 in test [2] (setting [3]) was over 50000 nM.

For `CNc1cc(Nc2cccc3ocnc23)nc2c(C(=O)NC3CCC3OC)cnn12` (centres unmarked) [I-1051, 5-(benzo[d]oxazol-4-ylamino)-N-(2-methoxycyclobutyl)-7-(methylamino) pyrazolo[1,5-a]pyrimidine-3-carboxamide], the IC50 in test [2] (setting [3]) was over 50000 nM. Consider `CNc1cc(Nc2cccn3ccnc23)nc2c(C(=O)N[C@H]3CC[C@@H]3OC)cnn12` [I-1052], for which the IC50 in test [2] (setting [3]) was over 50000 nM. As to `CNc1cc(-c2cn(C(C)C)c3ncc(F)cc23)nc2c(C(=O)N[C@H]3CC[C@@H]3OC)cnn12` [I-1053, 5-(5-fluoro-1-isopropyl-1H-pyrrolo[2,3-b]pyridin-3-yl)-N-((1S,2S)-2-methoxycyclobutyl)-7-(methylamino)pyrazolo[1,5-a]pyrimidine-3-carboxamide], the IC50 in test [2] (setting [3]) is over 12500 nM.

Take `CNc1cc(Nc2cccn([C@H]3CCCC[C@H]3O)c2=O)nc2c(C(=O)N[C@@H]3CC[C@H]3OC)cnn12` [I-1057]: the IC50 in test [2] (setting [3]) was over 50000 nM. Same read-out and setting: the result for `CNc1cc(Nc2cccn([C@H]3CCCN(CCF)C3)c2=O)nc2c(C(=O)N[C@@H]3CC[C@H]3OC)cnn12` [I-1059] reads over 50000 nM; that for `CNc1cc(Nc2cccn([C@H]3CCC[C@H](O)C3)c2=O)nc2c(C(=O)N[C@H]3CC[C@@H]3OC)cnn12` [I-1063], over 50000 nM. On to `CNc1cc(Nc2cccn(-c3cnn(C)c3F)c2=O)nc2c(C(=O)N[C@H]3CC[C@@H]3OC)cnn12` [I-1066], for which, in test [2] (setting [3]), the IC50 was over 50000 nM.

Take `CNc1cc(Nc2cccn(-c3ncc(C)s3)c2=O)nc2c(C(=O)N[C@@H]3CC[C@H]3O)cnn12` [I-1070]: the IC50 in test [2] (setting [3]) was over 12500 nM. Regarding `CNc1cc(Nc2cccn(-c3ncc(C)s3)c2=O)nc2c(C(=O)N[C@@H]3CC[C@@H]3O)cnn12` [I-1073], the IC50 in test [2] (setting [4]) was over 50000 nM. `CNc1cc(Nc2cccn([C@@H]3CCC[C@H](OC)C3)c2=O)nc2c(C(=O)N[C@@H]3CC[C@H]3OC)cnn12` [I-1082]: the IC50 in test [2] (setting [4]) was over 50000 nM. Take `CNc1cc(Nc2cccn([C@H]3[C@@H]4COC[C@@H]43)c2=O)nc2c(C(=O)N[C@H]3CC[C@@H]3OC)cnn12` [I-1088]: the IC50 in test [2] (setting [3]) is over 50000 nM.

For the compound `CNc1cc(Nc2cccn([C@@H]3CC[C@H]3O)c2=O)nc2c(C(=O)N[C@H]3CC[C@@H]3OC)cnn12` [I-1093], in test [2] (setting [3]), the IC50 is over 50000 nM. On the same count and under the same terms, the figure for `CNc1cc(Nc2cccn([C@H]3CC[C@@H]3O)c2=O)nc2c(C(=O)N[C@H]3CC[C@@H]3OC)cnn12` [I-1094] is over 50000 nM; for `CNc1cc(Nc2cccn([C@@H]3CCCN(CCF)C3)c2=O)nc2c(C(=O)N[C@@H]3CC[C@H]3OC)cnn12` [I-1095] it is over 50000 nM; for `CNc1cc(Nc2cccn([C@@H]3CCN(CCF)C3)c2=O)nc2c(C(=O)NC3CCC3OC)cnn12` (stereo partly drawn) [I-1096, 5-((1-((R)—1-(2-fluoroethyl)pyrrolidin-3-yl)-2-oxo-1,2-dihydropyridin-3-yl)amino)-N-(2-methoxycyclobutyl)-7-(methylamino)pyrazolo[1,5-a]pyrimidine-3-carboxamide] it is over 50000 nM.

Regarding `CNc1cc(Nc2cccn([C@H]3CCCC[C@H]3OC)c2=O)nc2c(C(=O)N[C@H]3CC[C@@H]3OC)cnn12` [I-1097], the IC50 in test [2] (setting [3]) was over 50000 nM.

On to `CNc1cc(Nc2cccn([C@H]3CCC[C@H](OC)C3)c2=O)nc2c(C(=O)N[C@H]3CC[C@@H]3OC)cnn12` [I-1098], for which the IC50 in test [2] (setting [3]) is over 50000 nM. Same read-out and setting: the figure for `CNc1cc(Nc2cccn([C@@H]3CCC[C@@H](OC)C3)c2=O)nc2c(C(=O)N[C@H]3CC[C@@H]3OC)cnn12` [I-1099] is over 50000 nM. Turning to `CNc1cc(Nc2cccn([C@H]3CCC[C@H]3O)c2=O)nc2c(C(=O)N[C@H]3CC[C@@H]3OC)cnn12` [I-1101], the IC50 in test [2] (setting [3]) is over 50000 nM. As for `CNc1cc(Nc2cccn3cnnc23)nc2c(C(=O)N[C@H]3CC[C@@H]3OC)cnn12` [I-1102], the IC50 in test [2] (setting [3]) is over 2500 nM. Still for that read-out and setting: the result for `CNc1cc(Nc2cccn([C@H]3CC[C@](C)(OC)CC3)c2=O)nc2c(C(=O)N[C@H]3CC[C@@H]3OC)cnn12` [I-1105] reads over 50000 nM. With `CNc1cc(Nc2cccn([C@H]3CC[C@](C)(OC)CC3)c2=O)nc2c(C(=O)N[C@@H]3CC[C@H]3O)cnn12` [I-1107], in test [2] (setting [4]), the IC50 is over 2500 nM. Consider `CNc1cc(Nc2cccn3ccnc23)nc2c(C(=O)N[C@@H]3CC[C@H]3OC)cnn12` [I-1133], for which the IC50 in test [1] is under 100 nM. As to `CNc1cc(-c2cn([C@H]3CCCOC3)c3ncccc23)nc2c(C(=O)N[C@H]3CC[C@@H]3OC)cnn12` [I-1283], in test [1], the IC50 was under 100 nM.

In turn, `CNc1cc(Nc2cccn(-c3ccccn3)c2=O)nc2c(C(=O)N[C@@H]3C[C@H]3OC)cnn12` [I-1286] had an IC50 in test [1] of under 100 nM. In test [1], `CNc1cc(Nc2cccn([C@H]3CCC[C@@H](O)C3)c2=O)nc2c(C(=O)N[C@H]3CC[C@@H]3OC)cnn12` [I-1296] had a half-maximal inhibitory concentration (IC50) of under 100 nM. On to `CNc1cc(-c2cn(CCCO)c3ncccc23)nc2c(C(=O)N[C@@H]3CC[C@H]3OC)cnn12` [I-1299], for which, in test [1], the IC50 was under 100 nM. Take `CNc1cc(Nc2cccn([C@@H]3CC[C@H]3O)c2=O)nc2c(C(=O)N[C@@H]3CC[C@H]3OC)cnn12` [I-1309]: the IC50 in test [1] is under 100 nM.

As to `CNc1cc(-c2cn(C3CCOCC3)c3ncc(F)cc23)nc2c(C(=O)N[C@H]3CC[C@@H]3O)cnn12` [I-1314], the IC50 in test [1] was under 100 nM. In test [1], `CNc1cc(Nc2cccn(-c3nn(C)cc3F)c2=O)nc2c(C(=O)N[C@@H]3C[C@@H]3F)cnn12` [I-1321] showed an IC50 of under 100 nM. With `CNC(=O)c1occc1Nc1cc(NC)n2ncc(C(=O)N[C@H]3CC[C@@H]3OC)c2n1` [I-1323], the IC50 in test [1] was under 100 nM. The same measure, in the same setting: the result for `CNc1cc(-c2cn(C3CC3)c3ncccc23)nc2c(C(=O)N[C@H]3CC[C@@H]3OC)cnn12` [I-1325] reads under 100 nM; that for `CNc1cc(-c2cn(C3CCOCC3)c3ncccc23)nc2c(C(=O)N[C@@H]3CC[C@H]3OC)cnn12` [I-1328], under 100 nM; that for `CNc1cc(Nc2cccn([C@@H]3CCC[C@@H](OC)C3)c2=O)nc2c(C(=O)N[C@H]3CC[C@@H]3OC)cnn12` [I-1331], under 100 nM.

For the compound `CNc1cc(Nc2cccn([C@@H]3CCN(CCF)C3)c2=O)nc2c(C(=O)N[C@@H]3CC[C@H]3OC)cnn12` [I-1333], in test [1], the IC50 is under 100 nM.

Compound `CNc1cc(Nc2cccn3cnnc23)nc2c(C(=O)N[C@H]3CC[C@@H]3OC)cnn12` [I-1343] registered an IC50 in test [1] of under 100 nM. For `CNc1cc(Nc2cccn([C@@H]3CC[C@@H]3O)c2=O)nc2c(C(=O)N[C@@H]3CC[C@H]3OC)cnn12` [I-1350], the IC50 in test [1] was under 100 nM. Still for that read-out and setting: the result for `CNc1cc(Nc2cccn([C@H]3[C@@H]4COC[C@@H]43)c2=O)nc2c(C(=O)N[C@@H]3CC[C@H]3OC)cnn12` [I-1354] reads under 100 nM. In turn, `CNc1cc(-c2cn([C@@H]3CCCOC3)c3ncccc23)nc2c(C(=O)N[C@H]3CC[C@@H]3OC)cnn12` [I-1364] displayed an IC50 in test [1] of under 100 nM. Still for that read-out and setting: the result for `CNc1cc(-c2cn([C@H]3CCCOC3)c3ncccc23)nc2c(C(=O)N[C@H]3CC[C@@H]3OC)cnn12` [I-1365] reads under 100 nM; that for `CNc1cc(-c2cn([C@@H]3CCN(CCF)C3)c3ncccc23)nc2c(C(=O)N[C@@H]3C[C@@H]3F)cnn12` [I-1366], under 100 nM; that for `CNc1cc(Nc2cccn(-c3cnn(C)c3F)c2=O)nc2c(C(=O)N[C@H]3CC[C@@H]3OC)cnn12` [I-1369], under 100 nM.

The values above are taken from patent US10577373B2, “TYK2 inhibitors and uses thereof” (Nimbus Lakshmi, Inc., priority 2017, dated 2020).
